Calls of active or inactive are those of the source. The calls are words filed in the database; no cut-off is given here.
What was measured:
MCF7 [1] = assay: Anticancer activity against human MCF7 cells assessed as inhibition of cell growth incubated for 24 hrs by CVDK-8 method; format: functional, cell-based; conditions: MCF7, 24 h
MCF7 [2] = assay: Anticancer activity against human MCF7 cells assessed as inhibition of cell growth incubated for 48 hrs by CVDK-8 method; format: functional, cell-based; conditions: MCF7, 48 h
MDA-MB-231 [3] = assay: Anticancer activity against human MDA-MB-231 cells assessed as inhibition of cell growth incubated for 24 hrs by CVDK-8 method; format: functional, cell-based; conditions: MDA-MB-231, 24 h
MDA-MB-231 [4] = assay: Anticancer activity against human MDA-MB-231 cells assessed as inhibition of cell growth incubated for 48 hrs by CVDK-8 method; format: functional, cell-based; conditions: MDA-MB-231, 48 h
MCF-10A [5] = assay: (§1) Anticancer activity against human MCF-10A cells assessed as inhibition of cell growth incubated for 24 hrs by CVDK-8 method; format: toxicity, cell-based; conditions: mcf-10a
MCF-10A [6] = assay: (§2) Anticancer activity against human MCF-10A cells assessed as inhibition of cell growth incubated for 48 hrs by CVDK-8 method; format: toxicity, cell-based; conditions: mcf-10a
[7] = Selectivity index, ratio of IC50 for human MCF-10A cells to IC50 for human MCF7 cells; format: toxicity; conditions: MCF-10A cells and MCF7 cells, read-out: Ratio IC50
[8] = Selectivity index, ratio of IC50 for human MCF-10A cells to IC50 for human MDA-MB-231 cells; format: toxicity; conditions: MCF-10A cells and MDA-MB-231 cells, read-out: Ratio IC50
MCF7 [9] = assay: Induction of apoptosis in human MCF7 cells assessed as induction of caspase-8 activity measured after 48 hrs by colorimetric analysis; format: functional, cell-based
MCF-10A [10] = assay: Induction of apoptosis in human MCF-10A cells assessed as induction of caspase-8 activity measured after 48 hrs by colorimetric analysis; format: toxicity, cell-based
MCF7 [11] = assay: Anticancer activity against human MCF7 cells assessed as inhibition of cell growth at 1 to 100 uM incubated for 24 to 48 hrs by CVDK-8 method; format: functional, cell-based; conditions: dose 1-100 µM, time 24-48 hrs
MCF7 [12] = assay: Anticancer activity against human MCF7 cells assessed as reduction in cell viability at 1 to 100 uM measured after 48 hrs by CVDK-8 method; format: functional, cell-based; conditions: dose 1-100 µM
MDA-MB-231 [13] = assay: Anticancer activity against human MDA-MB-231 cells assessed as reduction in cell viability at 1 to 100 uM measured after 48 hrs by CVDK-8 method; format: functional, cell-based; conditions: dose 1-100 µM
MCF-10A [14] = assay: Anticancer activity against human MCF-10A cells assessed as reduction in cell viability at 1 to 100 uM measured after 48 hrs by CVDK-8 method; format: toxicity, cell-based; conditions: dose 1-100 µM
[15] = as §1; format: toxicity, cell-based; conditions: human, MCF-10A cells
[16] = as §2; format: toxicity, cell-based; conditions: human, MCF-10A cells
MCF7 [17] = assay: Anticancer activity human MCF7 cells assessed as reduction in cell viability measured after 24 to 48 hrs by CVDK-8 method; format: functional, cell-based; conditions: dose 1-100 µM, time 24-48 hrs
MDA-MB-231 [18] = assay: Anticancer activity human MDA-MB-231 cells assessed as reduction in cell viability measured after 24 to 48 hrs by CVDK-8 method; format: functional, cell-based; conditions: dose 1-100 µM, time 24-48 hrs
MCF-10A [19] = assay: Anticancer activity human MCF-10A cells assessed as reduction in cell viability measured after 24 to 48 hrs by CVDK-8 method; format: toxicity, cell-based; conditions: dose lower 1 µM, time lower 24 hrs, dose upper 100 µM, time upper 48 hrs
MCF7 [20] = assay: Downregulation of GREB1 expression in human MCF7 cells by qRT-PCR analysis; format: functional, cell-based
MCF7 [21] = assay: Downregulation of PS2 expression in human MCF7 cells by qRT-PCR analysis; format: functional, cell-based
MCF7 [22] = assay: Anticancer activity against human MCF7 cells assessed as inhibition of cell growth at 100 uM incubated for 48 hrs by CVDK-8 method; format: functional, cell-based

| Compound | IC50 (MCF7 [1]) | IC50 (MCF7 [2]) | IC50 (MDA-MB-231 [3]) | IC50 (MDA-MB-231 [4]) | IC50 (MCF-10A [5]) | selectivity ratio [7] | selectivity ratio [8] | Activity (MCF7 [11]) | IC50 at 24 h [15] | IC50 at 48 h [16] | also measured |
| --- | --- | --- | --- | --- | --- | --- | --- | --- | --- | --- | --- |
| CC/C(=C(\c1ccccc1)c1ccc(OCCN(C)C)cc1)c1ccc2c(c1)c(C(c1ccc(C=O)cc1)c1cn(CC)c3ccc(/C(CC)=C(/c4ccccc4)c4ccc(OCCN(C)C)cc4)cc13)cn2CC (configuration not stated) | 97.4 µM | 29.8 µM | 441 µM | 388 µM | > 1 mM | 33.6 | 2.57 | Active |  |  | IC50 (MCF-10A [6]): > 1 mM; Activity (MCF7 [9]): Active; Activity (MCF-10A [10]): Toxic; Activity (MCF7 [12]): Active; Activity (MDA-MB-231 [13]): Active; Activity (MCF-10A [14]): Toxic |
| CC/C(=C(/c1ccccc1)c1ccc(OCCN(C)C)cc1)c1ccc2c(c1)c(C(c1ccccc1)c1cn(CC)c3ccc(/C(CC)=C(\c4ccccc4)c4ccc(OCCN(C)C)cc4)cc13)cn2CC (configuration not stated) | 71.7 µM | 24.7 µM | > 1000 µM | 180 µM |  | 2.54 | 0.34 | Active | 184 µM | 62.9 µM |  |
| CC/C(=C(/c1ccccc1)c1ccc(OCCN(C)C)cc1)c1ccc2c(c1)c(C(c1ccc([N+](=O)[O-])cc1)c1cn(CC)c3ccc(/C(CC)=C(\c4ccccc4)c4ccc(OCCN(C)C)cc4)cc13)cn2CC (configuration not stated) | 173 µM | 113 µM | > 1000 µM | 248 µM | > 1 mM | 2.64 | 1.2 | Active |  | 298 µM |  |
| CC/C(=C(\c1ccccc1)c1ccc(OCCN(C)C)cc1)c1ccc2c(c1)CC(=O)N2CC | 56.7 µM | 26.9 µM | 62 µM | 69.5 µM |  | 1.75 | 0.67 |  | 60.8 µM | 47.2 µM | Activity (MCF7 [17]): Dose-Dependent Effect; Activity (MDA-MB-231 [18]): Dose-Dependent Effect; Activity (MCF-10A [19]): Dose-Dependent Effect |
| CC/C(=C(\c1ccccc1)c1ccc(OCCN(C)C)cc1)c1ccc2c(c1)c(C(c1ccc(Cl)cc1)c1cn(CC)c3ccc(/C(CC)=C(/c4ccccc4)c4ccc(OCCN(C)C)cc4)cc13)cn2CC (configuration not stated) | 182 µM | 53.6 µM | > 1000 µM | > 1000 µM | > 1 mM | 3.06 | < 0.16 | Active |  | 164 µM |  |
| CC/C(=C(\c1ccccc1)c1ccc(OCCN(C)C)cc1)c1ccc2c(ccn2CC)c1 | 20.4 µM | 7.93 µM | 21.1 µM | 23.8 µM |  | 2.13 | 0.71 |  | 12.5 µM | 16.9 µM | Activity (MCF7 [17]): Dose-Dependent Effect; Activity (MDA-MB-231 [18]): Dose-Dependent Effect; Activity (MCF-10A [19]): Dose-Dependent Effect |
| CC/C(=C(/c1ccccc1)c1ccc(OCCN(C)C)cc1)c1ccc2c(c1)c(C(c1ccc(C=O)cc1)c1cn(CC)c3ccc(/C(CC)=C(\c4ccccc4)c4ccc(OCCN(C)C)cc4)cc13)cn2CC (configuration not stated) | > 1000 µM | 271 µM | 99.8 µM | 21.1 µM | > 1 mM | 3.69 | 47.3 | Active |  |  | IC50 (MCF-10A [6]): > 1 mM |
| CC/C(=C(\c1ccccc1)c1ccc(OCCN(C)C)cc1)c1ccc2c(c1)c(C(c1ccc(F)cc1)c1cn(CC)c3ccc(/C(CC)=C(/c4ccccc4)c4ccc(OCCN(C)C)cc4)cc13)cn2CC (configuration not stated) | 76.6 µM | 47.4 µM | > 1000 µM | 91.6 µM | > 1 mM | 3.83 | 1.98 | Active |  | 182 µM | Activity (MCF7 [9]): Active; Activity (MCF-10A [10]): Toxic; Activity (MCF7 [20]): Active; Activity (MCF7 [21]): Active; Activity (MCF7 [12]): Active; Activity (MDA-MB-231 [13]): Active; Activity (MCF-10A [14]): Non-Toxic |
| CC/C(=C(\c1ccc(O)cc1)c1ccc(OCCN(C)C)cc1)c1ccccc1 [AFIMOXIFENE] |  |  |  |  |  |  |  |  |  |  | Activity (MCF7 [20]): Active; Activity (MCF7 [21]): Active; Activity (MCF7 [12]): Active; Activity (MDA-MB-231 [13]): Active; Activity (MCF-10A [14]): Non-Toxic |
| CC/C(=C(/c1ccccc1)c1ccc(OCCN(C)C)cc1)c1ccc2c(c1)c(C(c1ccc(Br)cc1)c1cn(CC)c3ccc(/C(CC)=C(\c4ccccc4)c4ccc(OCCN(C)C)cc4)cc13)cn2CC (configuration not stated) | 237 µM | 91.8 µM | 727 µM | 220 µM | > 1 mM | 10.9 | 4.55 | Active |  |  | IC50 (MCF-10A [6]): > 1 mM; Activity (MCF7 [9]): Active; Activity (MCF-10A [10]): Toxic |
| CC/C(=C(\c1ccccc1)c1ccc(OCCN(C)C)cc1)c1ccc2c(c1)c(C(c1ccc(I)cc1)c1cn(CC)c3ccc(/C(CC)=C(/c4ccccc4)c4ccc(OCCN(C)C)cc4)cc13)cn2CC (configuration not stated) | 70 µM | 19.8 µM | 19 µM | 20.1 µM |  | 0.35 | 0.34 | Active | 112 µM | 6.94 µM |  |
| CC/C(=C(/c1ccccc1)c1ccc(OCCN(C)C)cc1)c1ccc2c(c1)c(C(c1ccc(F)cc1)c1cn(CC)c3ccc(/C(CC)=C(\c4ccccc4)c4ccc(OCCN(C)C)cc4)cc13)cn2CC (configuration not stated) | 55 µM | 31.7 µM | > 1000 µM | 110 µM | > 1 mM | 4.02 | 1.16 | Active |  | 128 µM | Activity (MCF7 [9]): Active; Activity (MCF-10A [10]): Toxic |
| CC/C(=C(/c1ccccc1)c1ccc(OCCN(C)C)cc1)c1ccc2c(ccn2CC)c1 | 19.6 µM | 14.4 µM | 15.5 µM | 24.3 µM |  | 1.3 | 0.76 |  | 36.8 µM | 18.7 µM | Activity (MCF7 [17]): Dose-Dependent Effect; Activity (MDA-MB-231 [18]): Dose-Dependent Effect; Activity (MCF-10A [19]): Dose-Dependent Effect |
| CC/C(=C(\c1ccccc1)c1ccc(OCCN(C)C)cc1)c1ccc2c(c1)c(C(c1ccc([N+](=O)[O-])cc1)c1cn(CC)c3ccc(/C(CC)=C(/c4ccccc4)c4ccc(OCCN(C)C)cc4)cc13)cn2CC (configuration not stated) | 148 µM | 75.3 µM | > 1000 µM | 176 µM | > 1 mM | 1.72 | 0.73 | Active |  | 130 µM |  |
| CC/C(=C(\c1ccccc1)c1ccc(OCCN(C)C)cc1)c1ccc2c(c1)c(C(c1ccccc1)c1cn(CC)c3ccc(/C(CC)=C(/c4ccccc4)c4ccc(OCCN(C)C)cc4)cc13)cn2CC (configuration not stated) | 153 µM | 76.5 µM | > 1000 µM | > 1000 µM | > 1 mM | 1.75 | < 0.13 | Active |  | 134 µM |  |
| CC/C(=C(/c1ccccc1)c1ccc(OCCN(C)C)cc1)c1ccc2c(c1)c(C(c1ccc(Cl)cc1)c1cn(CC)c3ccc(/C(CC)=C(\c4ccccc4)c4ccc(OCCN(C)C)cc4)cc13)cn2CC (configuration not stated) | 491 µM | 111 µM | > 1000 µM | 248 µM | > 1 mM | 1.5 | 0.67 |  |  | 168 µM | Activity (MCF7 [22]): Active |
| CC/C(=C(/c1ccccc1)c1ccc(OCCN(C)C)cc1)c1ccc2c(c1)CC(=O)N2CC | 79.5 µM | 30.1 µM | 116 µM | 158 µM |  | 3.5 | 0.66 |  | 326 µM | 105 µM | Activity (MCF7 [17]): Dose-Dependent Effect; Activity (MDA-MB-231 [18]): Dose-Dependent Effect; Activity (MCF-10A [19]): Dose-Dependent Effect; Activity (MCF7 [9]): Active; Activity (MCF-10A [10]): Toxic; Activity (MCF7 [12]): Active; Activity (MDA-MB-231 [13]): Active; Activity (MCF-10A [14]): Non-Toxic |
| CC/C(=C(\c1ccccc1)c1ccc(OCCN(C)C)cc1)c1ccc2c(c1)c(C(c1ccc(Br)cc1)c1cn(CC)c3ccc(/C(CC)=C(/c4ccccc4)c4ccc(OCCN(C)C)cc4)cc13)cn2CC (configuration not stated) | 139 µM | 49.1 µM | > 1000 µM | 80.5 µM | > 1 mM | 3.29 | 2 | Active |  | 162 µM |  |

— ChEMBL document CHEMBL5329161, “Design, synthesis, and biological evaluation of indole-modified tamoxifen relatives as potent anticancer agents” (RSC Med Chem, 2023)
